From patent US12521364B2, “Composition for preventing or treating neuropathic pain, containing syringaresinol” (UNIVERSITY-INDUSTRY COOPERATION GROUP OF KYUNG HEE …, priority 2019, dated 2026)

Tests used:
[1] = system: oxaliplatin-induced neuropathic pain animal models; assay: Mechanical allodynia (von Frey filament) in oxaliplatin-induced neuropathic pain animal models; format: in vivo, c57/bl6 male mice; conditions: 10 mg/kg oral, 1 hour after administration, day 3 after oxaliplatin injection, 0.4 g von Frey filament
Description: (§1) Oxaliplatin (Sigma-Aldrich) dissolved in a 5% glucose solution to 2 mg/mL was single-intraperitoneally administered at 6 mg/kg to twelve 5-week-old c57/bl6 male mice. Significant pain was observed from about 3 days after the first injection.
The behavior of withdrawal to a stimulus using a 0.4 g von Frey filament (Touch test 3.61, Stoelting, USA), which causes mechanical allodynia in the oxaliplatin-induced neuropathic pain animal models, was recorded and observed. To measure the withdrawal response of the paws in the animal models, the animals were put in a transparent acrylic box (7 cm×10 cm) placed on a wire mesh with a grid size of 5 mm and given time to acclimate to the environment. After about 1 hour, the acclimation of the mice was checked, and the medial part of the affected paw was stimulated with the quantified von Frey filament through a wire mesh grid. A total of 10 stimulations sufficient to slightly bend the von Frey filament were given at intervals of 20 seconds, and the number of withdrawals was measured. […]

iNOS = assay: Western blot of iNOS in BV2 cells with oxaliplatin-induced inflammatory response; format: cell-based
Description: (§2) BV2 cell lines (microglia) were cultured in Dulbecco's modified Eagle's medium (DMEM; GIBCO, Grand Island, NY, USA) containing 10% fetal bovine serum (FBS; GIBCO) and 1% penicillin in a 5% CO2 incubator (37° C.). […]
(§3) Thereafter, proteins were isolated from the cells of each treatment group. […] The isolated proteins were quantified for each subject by using the Bradford (Bio-rad, USA) method using bovine serum albumin (BSA, Sigma, USA), and then 20 μg of the proteins were separated by 10% sodium dodecyl sulfate—polyacrylamide gel electrophoresis (SDS-PAGE) and transferred to polyvinylidene difluoride (PVDF) membranes (membrane, Gendepot, UK). […] The protein identification and quantitative analysis were performed using an imaging system (ChemiDoc XRS+ System, Bio-Rad).
(§4) All of the results were analyzed using the SPSS 21.0 package (SPSS Inc., Chicago, USA), and the experimental results were presented as the mean±standard deviation values. Statistical significance was validated using one-way analysis of variance (ANOVA) and then analyzed by Fisher's LSD test, and the significance probability value (p-value) was recognized only when p<0.05 and p<0.01.

p-NF-κB = assay: Western blot of p-NF-κB in BV2 cells with oxaliplatin-induced inflammatory response; format: cell-based
Description: as §2, §3, §4

[2] = system: oxaliplatin-induced neuropathic pain animal models; assay: Cold allodynia (acetone test) in oxaliplatin-induced neuropathic pain animal models; format: in vivo, c57/bl6 male mice; conditions: 10 mg/kg oral, 1 hour after administration, day 3 after oxaliplatin injection, acetone to rear paws
Description: In the paclitaxel-induced neuropathic pain animal models, the response occurring after about 20 μL of acetone was applied to both rear paws of the animal models to cause cold allodynia was observed and recorded for about 15 seconds. The behaviors of withdrawal, shaking, and licking of the paws were observed and recorded. A total of three repeated trials were performed, and the average number of behaviors recorded was checked.
as §1
Cold allodynia was caused in the oxaliplatin-induced neuropathic pain animal models by way of the method in Example 2.
On the 3rd day after the oxaliplatin injection, animal models showing a statistically significant level of pain were divided into a drug group administered 10 mg/kg syringaresinol (syringaresinol, n=6) and a control group orally administered 0.06% Tween 80 (vehicle, n=6), and then were administered the corresponding drugs to thereby cause cold allodynia and mechanical allodynia after 1 hour.

[3] = system: paclitaxel-induced neuropathic pain animal models; assay: Cold allodynia (acetone test) in paclitaxel-induced neuropathic pain animal models; format: in vivo, c57/bl6 male mice; conditions: 10 mg/kg oral, 1 hour after administration, day 14 after first paclitaxel injection, acetone to rear paws
Description: Paclitaxel (Sigma-Aldrich) dissolved in a 1:1 solution of Cremophor EL and ethanol at 6 mg/mL was diluted to a concentration of 0.2 mg/mL, and 2 mg/kg of the diluent was intraperitoneally administered to ten 6-week-old c57/bl6 male mice four times. Injections were conducted on days 0, 2, 4, and 6 at intervals of every other day. A significant pain was observed from about 10 days after the first injection. In the paclitaxel-induced neuropathic pain animal models, the response occurring after about 20 μL of acetone was applied to both rear paws of the animal models to cause cold allodynia was observed and recorded for about 15 seconds. The behaviors of withdrawal, shaking, and licking of the paws were observed and recorded. A total of three repeated trials were performed, and the average number of behaviors recorded was checked. On the 14th day after the first injection of paclitaxel, animal models showing a statistically significant level of pain were divided into a drug group administered 10 mg/kg of syringaresinol (syringaresinol, n=5) and a control group orally administered 0.06% Tween 80 (vehicle, n=5), and then were administered the corresponding drugs to thereby cause cold allodynia after 1 hour.

p-ERK MAPK = assay: Western blot of p-ERK in BV2 cells with oxaliplatin-induced inflammatory response; format: cell-based
Description: as §2, §3, §4

[4] = system: peripheral nerve injury (PNL)-induced neuropathic pain animal models; assay: Mechanical pain (von Frey filament) in peripheral nerve injury (partial sciatic nerve ligation, PNL)-induced neuropathic pain models; format: in vivo, c57/bl6 male mice; conditions: 10 mg/kg oral, PNL mice
Description: The behavior of withdrawal to a stimulus using a 0.4 g von Frey filament (Touch test 3.61, Stoelting, USA), which causes mechanical allodynia in the oxaliplatin-induced neuropathic pain animal models, was recorded and observed. To measure the withdrawal response of the paws in the animal models, the animals were put in a transparent acrylic box (7 cm×10 cm) placed on a wire mesh with a grid size of 5 mm and given time to acclimate to the environment. After about 1 hour, the acclimation of the mice was checked, and the medial part of the affected paw was stimulated with the quantified von Frey filament through a wire mesh grid. A total of 10 stimulations sufficient to slightly bend the von Frey filament were given at intervals of 20 seconds, and the number of withdrawals was measured.
After twelve 5-week-old c57/bl6 male mice were respiratory anesthetized with 2.5% isoflurane, the skin on the posterior side of the right hip joint was shaved and incised, and then the sciatic nerve between the biceps femoris was found and confirmed. Thereafter, the […] was penetrated and ligated by a 7 m/m (⅜) silk thread, and then the cut skin was sutured. […]

[5] = BV2 cells, syringaresinol 10 μg/mL and 100 μg/mL for 1 hour, then 1 μg/mL oxaliplatin for 3 hours
[6] = BV2 cells stimulated with 1 μg/mL oxaliplatin for 3 hours, versus normal control

| SMILES | mechanical allodynia compared with the control group (vehicle) [1] | oxaliplatin-induced increase of iNOS protein expression (iNOS; [5]) | oxaliplatin-induced increase of p-NF-κB protein expression (p-NF-κB; [5]) | cold allodynia compared with the control group (vehicle) [2] | cold allodynia compared with the control group (vehicle) [3] | oxaliplatin-induced increase of p-ERK MAPK protein expression (p-ERK MAPK; [5]) | mechanical pain compared with the control group (vehicle) [4] | protein expression of iNOS (iNOS; [6]) | protein expression level of p-NF-κB (p-NF-κB; [6]) | protein expression level of p-ERK MAPK (p-ERK MAPK; [6]) |
| --- | --- | --- | --- | --- | --- | --- | --- | --- | --- | --- |
| COc1cc(C2OCC3C(c4cc(OC)c(O)c(OC)c4)OCC23)cc(OC)c1O (stereo not shown) [syringaresinol] | mitigated | significantly inhibited | significantly inhibited | mitigated | mitigated | significantly inhibited | significantly mitigated | – | – | – |
| O=C1[O][Pt]2([NH][C@@H]3CCCC[C@H]3[NH]2)[O]C1=O [oxaliplatin, reference compound] | – | – | – | – | – | – | – | significantly increased | significantly increased | significantly increased |
